{
  "source": "paper PMC6675780",
  "about": "“Monitoring activities of receptor tyrosine kinases using a universal adapter in genetically encoded split TEV assays” (Cellular and Molecular Life Sciences: CMLS, 2019)",
  "key": {"IGF1R": {"biological_target": "IGF1R (Homo sapiens, UniProt P08069)", "assay": "Split TEV recruitment assay, IGF1R-NTEV-tcs-GV in PC12 cells", "conditions": "SH2(GRB2)-CTEV adapter, constant IGF1 stimulus", "procedure": "(§1) Split TEV recruitment assays were run in six replicates per condition in 96-well plates. 50,000 PC12 cells per well were seeded onto poly-L-lysine (PLL)-coated plates. The next day, cells were transfected with assay plasmids using Lipofectamine 2000. For transfection-based assays, no antibiotics were added to the medium. Per 96-well, a receptor-NTEV-tcs-GV fusion plasmid (10 ng), an adapter-CTEV fusion plasmid for either SHC1 (10 ng), SH2(SHC1) (10 ng), SH2(GRB2) (10 ng), SH2(mix) (10 ng), PIK3R1(50 ng), SH2(PIK3R1) (50 ng), or GRB2 (2.5 ng), and an Fluc reporter plasmid (10 ng, Fluc driven by 10x clustered upstream activating sequences coupled to a minimal CMV promoter, 10 × UAS-minCMVp) were used. […] 16 h later (day 4), the medium was removed, and cells were lysed using Passive Lysis Buffer (Promega) and luciferase activity was analysed using a dual luciferase assay (Promega) in a Mithras LB 940 Multimode Microplate Reader (Berthold Technologies). […] Error bars are calculated as standard error of the mean (SEM).\n(§2) For split TEV recruitment assays in a dose–response format, the following amendments to the general protocol were made. […] Error bars are calculated as standard error of the mean (SEM)."}, "PC12 cells": {"test_system": "PC12 cells", "assay": "Constitutive Renilla luciferase readout to assess toxic effects", "format": "cell-based", "conditions": "split TEV dose-response assays", "experimental": "For split TEV recruitment assays in a dose–response format, the following amendments to the general protocol were made. For a dose–response assay, all cells on the plate were transfected with the same receptor-NTEV-tcs-GV and adapter-CTEV fusions, the Fluc reporter plasmid, 1 ng of a plasmid constitutively expressing Renilla luciferase driven by a thymidine kinase promoter, and the EYFPnuc expressing plasmid. Renilla luciferase was used to assess toxic effects when applying compounds. For dose-dependent stimulation testing activation, six wells per condition were stimulated using increasing concentrations of an agonist at a semi-logarithmic scale. For assays testing inhibition, cells were treated with increasing concentrations of an antagonist at a semi-logarithmic scale, followed 1 h later by the addition of an agonist at a constant concentration. […] Dose–response data were analysed using the R-based ‘drc’ package, as described before. Error bars are calculated as standard error of the mean (SEM). For ease of presentation and intuition, we have transformed conventionally used IC50 values into pIC50 values. These are calculated from IC50 values using the formula pIC50 = − log10(IC50), with units of molar for IC50 and therefore log(molar) for pIC50."}, "MET": {"biological_target": "MET (Homo sapiens, UniProt P08581)", "assay": "Split TEV recruitment assay, MET-NTEV-tcs-GV in PC12 cells", "conditions": "SH2(GRB2)-CTEV adapter, constant HGF stimulus", "procedure": "as §1, §2"}, "ERBB4 [1]": {"test_system": "ERBB4", "set-up": "method as in PMID 28743784", "conditions": "split TEV dimerisation assay; cited from earlier work"}, "EGFR [2]": {"biological_target": "EGFR (Homo sapiens, UniProt P00533)", "sequence (P00533 25-1210)": "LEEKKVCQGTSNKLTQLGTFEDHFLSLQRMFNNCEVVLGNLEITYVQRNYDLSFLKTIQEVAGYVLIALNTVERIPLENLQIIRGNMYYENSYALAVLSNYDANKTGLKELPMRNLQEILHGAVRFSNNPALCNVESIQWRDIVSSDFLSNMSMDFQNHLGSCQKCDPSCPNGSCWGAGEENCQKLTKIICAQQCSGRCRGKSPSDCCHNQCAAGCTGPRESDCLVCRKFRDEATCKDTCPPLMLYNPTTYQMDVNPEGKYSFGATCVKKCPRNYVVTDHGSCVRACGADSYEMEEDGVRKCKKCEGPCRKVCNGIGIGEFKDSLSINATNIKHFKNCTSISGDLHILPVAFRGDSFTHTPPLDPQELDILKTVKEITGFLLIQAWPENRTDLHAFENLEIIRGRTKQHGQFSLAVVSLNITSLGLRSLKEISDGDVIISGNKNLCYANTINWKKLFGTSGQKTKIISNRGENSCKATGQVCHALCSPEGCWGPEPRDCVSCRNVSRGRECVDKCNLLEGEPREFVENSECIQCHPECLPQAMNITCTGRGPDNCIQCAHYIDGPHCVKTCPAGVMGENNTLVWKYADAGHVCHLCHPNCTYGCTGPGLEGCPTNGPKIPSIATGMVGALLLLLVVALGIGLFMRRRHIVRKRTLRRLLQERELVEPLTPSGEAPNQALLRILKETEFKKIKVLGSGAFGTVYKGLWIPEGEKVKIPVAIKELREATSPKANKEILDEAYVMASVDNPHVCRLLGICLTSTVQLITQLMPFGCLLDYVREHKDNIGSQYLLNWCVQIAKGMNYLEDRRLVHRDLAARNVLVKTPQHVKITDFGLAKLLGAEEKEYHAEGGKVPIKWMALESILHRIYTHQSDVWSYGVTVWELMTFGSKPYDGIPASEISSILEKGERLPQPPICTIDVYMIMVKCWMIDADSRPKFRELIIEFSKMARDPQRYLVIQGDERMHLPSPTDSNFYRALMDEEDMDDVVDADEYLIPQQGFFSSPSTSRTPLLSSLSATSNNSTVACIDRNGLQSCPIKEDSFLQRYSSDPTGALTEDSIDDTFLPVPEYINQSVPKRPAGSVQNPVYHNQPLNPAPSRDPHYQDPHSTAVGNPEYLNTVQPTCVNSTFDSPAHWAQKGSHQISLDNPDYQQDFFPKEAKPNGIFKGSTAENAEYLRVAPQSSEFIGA", "assay": "Split TEV recruitment assay, EGFR-NTEV-tcs-GV in PC12 cells", "conditions": "SH2(GRB2)-CTEV adapter, constant EGF", "procedure": "as §1, §2"}, "ERBB2/ERBB3": {"biological_target": "ERBB2/ERBB3 (Homo sapiens, UniProt P04626+P21860)", "sequence (P21860 20-1342)": "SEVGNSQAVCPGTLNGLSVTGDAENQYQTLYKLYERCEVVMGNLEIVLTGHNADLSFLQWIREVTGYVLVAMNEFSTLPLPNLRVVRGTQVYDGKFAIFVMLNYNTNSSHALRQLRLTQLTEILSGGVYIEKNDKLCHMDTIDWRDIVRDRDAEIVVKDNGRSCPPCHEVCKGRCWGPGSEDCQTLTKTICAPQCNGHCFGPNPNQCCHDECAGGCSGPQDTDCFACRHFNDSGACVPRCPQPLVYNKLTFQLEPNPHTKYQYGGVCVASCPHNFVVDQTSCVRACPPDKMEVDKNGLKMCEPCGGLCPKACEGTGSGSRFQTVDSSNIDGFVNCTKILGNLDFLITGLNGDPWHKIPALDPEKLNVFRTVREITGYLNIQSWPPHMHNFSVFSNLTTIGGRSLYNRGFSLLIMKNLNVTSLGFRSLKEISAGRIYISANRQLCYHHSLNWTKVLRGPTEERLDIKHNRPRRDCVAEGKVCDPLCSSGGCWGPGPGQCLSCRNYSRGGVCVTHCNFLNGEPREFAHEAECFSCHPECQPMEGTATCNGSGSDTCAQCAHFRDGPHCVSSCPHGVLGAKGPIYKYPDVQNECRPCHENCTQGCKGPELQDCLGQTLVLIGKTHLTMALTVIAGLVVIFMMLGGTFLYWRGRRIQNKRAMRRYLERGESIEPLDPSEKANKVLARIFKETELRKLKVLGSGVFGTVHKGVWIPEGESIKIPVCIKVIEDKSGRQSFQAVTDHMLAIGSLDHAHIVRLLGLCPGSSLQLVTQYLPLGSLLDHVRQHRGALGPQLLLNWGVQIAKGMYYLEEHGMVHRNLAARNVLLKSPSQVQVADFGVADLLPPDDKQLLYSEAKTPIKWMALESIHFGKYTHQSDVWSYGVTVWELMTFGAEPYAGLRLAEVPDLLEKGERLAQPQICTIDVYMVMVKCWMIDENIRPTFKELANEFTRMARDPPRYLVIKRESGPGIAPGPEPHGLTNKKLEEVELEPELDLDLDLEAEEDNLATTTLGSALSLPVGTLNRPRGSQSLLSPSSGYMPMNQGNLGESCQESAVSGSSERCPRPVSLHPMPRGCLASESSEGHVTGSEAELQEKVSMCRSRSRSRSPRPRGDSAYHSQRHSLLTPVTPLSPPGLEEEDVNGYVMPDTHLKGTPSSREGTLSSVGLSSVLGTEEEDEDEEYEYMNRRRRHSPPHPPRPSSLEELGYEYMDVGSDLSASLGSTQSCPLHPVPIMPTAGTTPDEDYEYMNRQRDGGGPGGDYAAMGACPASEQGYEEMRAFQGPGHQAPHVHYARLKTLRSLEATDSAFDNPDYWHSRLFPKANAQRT", "sequence (P04626 23-1255)": "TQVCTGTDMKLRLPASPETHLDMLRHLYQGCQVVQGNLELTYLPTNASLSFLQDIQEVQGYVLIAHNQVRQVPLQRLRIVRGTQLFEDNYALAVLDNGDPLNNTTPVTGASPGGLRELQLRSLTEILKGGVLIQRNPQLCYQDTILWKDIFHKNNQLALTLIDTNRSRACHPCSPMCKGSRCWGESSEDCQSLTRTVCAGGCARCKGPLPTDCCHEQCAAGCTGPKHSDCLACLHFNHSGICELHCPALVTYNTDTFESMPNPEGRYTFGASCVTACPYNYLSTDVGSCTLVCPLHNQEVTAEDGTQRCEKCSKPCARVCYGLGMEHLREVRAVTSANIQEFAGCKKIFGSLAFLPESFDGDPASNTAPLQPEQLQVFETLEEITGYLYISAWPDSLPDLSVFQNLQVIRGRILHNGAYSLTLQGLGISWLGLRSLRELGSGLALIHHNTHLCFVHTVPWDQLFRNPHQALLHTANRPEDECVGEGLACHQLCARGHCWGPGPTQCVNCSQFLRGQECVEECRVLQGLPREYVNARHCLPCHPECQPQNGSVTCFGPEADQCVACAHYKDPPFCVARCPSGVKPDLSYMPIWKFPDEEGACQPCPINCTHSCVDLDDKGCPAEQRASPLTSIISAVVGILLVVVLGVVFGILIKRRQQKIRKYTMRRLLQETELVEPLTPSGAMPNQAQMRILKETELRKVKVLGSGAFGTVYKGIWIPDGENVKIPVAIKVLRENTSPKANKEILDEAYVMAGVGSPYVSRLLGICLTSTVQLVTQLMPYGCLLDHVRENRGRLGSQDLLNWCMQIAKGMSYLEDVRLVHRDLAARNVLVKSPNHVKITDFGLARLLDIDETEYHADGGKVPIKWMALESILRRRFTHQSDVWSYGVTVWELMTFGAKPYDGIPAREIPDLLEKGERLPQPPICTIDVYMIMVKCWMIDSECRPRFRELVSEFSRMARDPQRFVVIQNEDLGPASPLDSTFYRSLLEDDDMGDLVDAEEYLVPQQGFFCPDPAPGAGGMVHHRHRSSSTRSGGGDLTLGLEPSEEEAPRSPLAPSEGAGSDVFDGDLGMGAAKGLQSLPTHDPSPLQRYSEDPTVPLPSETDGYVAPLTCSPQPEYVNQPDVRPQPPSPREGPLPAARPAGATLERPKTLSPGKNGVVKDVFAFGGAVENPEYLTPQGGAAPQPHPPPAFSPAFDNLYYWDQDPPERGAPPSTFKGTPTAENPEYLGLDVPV", "assay": "Split TEV recruitment assay, ERBB3-NTEV-tcs-GV with co-transfected ERBB2 in PC12 cells", "conditions": "SH2(GRB2)-CTEV adapter, constant EGFld", "procedure": "as §1, §2"}, "ERBB4 [3]": {"biological_target": "ERBB4 (Homo sapiens, UniProt Q15303)", "sequence (Q15303 26-1308)": "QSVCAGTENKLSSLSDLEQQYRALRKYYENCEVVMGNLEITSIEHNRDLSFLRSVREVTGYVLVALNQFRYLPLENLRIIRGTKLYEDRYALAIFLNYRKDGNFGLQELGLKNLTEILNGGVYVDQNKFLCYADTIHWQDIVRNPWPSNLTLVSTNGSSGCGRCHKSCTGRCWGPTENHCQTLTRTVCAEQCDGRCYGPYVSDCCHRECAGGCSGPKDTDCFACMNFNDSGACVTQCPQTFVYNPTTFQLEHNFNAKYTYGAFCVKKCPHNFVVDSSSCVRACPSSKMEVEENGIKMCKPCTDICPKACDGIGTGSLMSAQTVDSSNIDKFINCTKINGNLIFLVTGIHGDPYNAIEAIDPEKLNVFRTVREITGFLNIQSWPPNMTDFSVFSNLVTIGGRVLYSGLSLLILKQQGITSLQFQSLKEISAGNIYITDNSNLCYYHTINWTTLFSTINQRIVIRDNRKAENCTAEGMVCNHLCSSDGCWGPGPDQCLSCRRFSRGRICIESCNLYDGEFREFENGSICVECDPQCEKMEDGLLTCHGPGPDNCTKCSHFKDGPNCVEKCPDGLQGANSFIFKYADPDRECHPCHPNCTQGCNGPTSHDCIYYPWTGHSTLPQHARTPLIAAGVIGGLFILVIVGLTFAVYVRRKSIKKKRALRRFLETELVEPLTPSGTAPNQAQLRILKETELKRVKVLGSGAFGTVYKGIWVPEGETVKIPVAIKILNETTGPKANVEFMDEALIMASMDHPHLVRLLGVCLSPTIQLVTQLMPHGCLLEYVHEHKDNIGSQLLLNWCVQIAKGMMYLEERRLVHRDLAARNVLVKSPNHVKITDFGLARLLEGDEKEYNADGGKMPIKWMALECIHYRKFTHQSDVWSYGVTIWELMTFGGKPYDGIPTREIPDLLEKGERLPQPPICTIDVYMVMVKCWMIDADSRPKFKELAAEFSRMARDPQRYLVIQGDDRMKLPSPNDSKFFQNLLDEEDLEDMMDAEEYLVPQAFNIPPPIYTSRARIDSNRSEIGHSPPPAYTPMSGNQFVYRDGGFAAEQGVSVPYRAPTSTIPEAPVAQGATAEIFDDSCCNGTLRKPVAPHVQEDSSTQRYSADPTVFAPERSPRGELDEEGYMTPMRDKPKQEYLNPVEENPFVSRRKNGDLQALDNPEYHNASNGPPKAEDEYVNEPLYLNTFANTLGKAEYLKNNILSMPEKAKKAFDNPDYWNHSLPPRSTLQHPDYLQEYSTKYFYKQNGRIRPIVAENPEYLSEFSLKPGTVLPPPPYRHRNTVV", "assay": "Split TEV recruitment assay, ERBB4-NTEV-tcs-GV in PC12 cells", "conditions": "for Antagonistic effect on ERBB4 activity: SH2(GRB2)-CTEV adapter, PC12 cells, constant EGFld", "procedure": "Split TEV recruitment assays were run in six replicates per condition in 96-well plates. 50,000 PC12 cells per well were seeded onto poly-L-lysine (PLL)-coated plates. The next day, cells were transfected with assay plasmids using Lipofectamine 2000. For transfection-based assays, no antibiotics were added to the medium. Per 96-well, a receptor-NTEV-tcs-GV fusion plasmid (10 ng), an adapter-CTEV fusion plasmid for either SHC1 (10 ng), SH2(SHC1) (10 ng), SH2(GRB2) (10 ng), SH2(mix) (10 ng), PIK3R1(50 ng), SH2(PIK3R1) (50 ng), or GRB2 (2.5 ng), and an Fluc reporter plasmid (10 ng, Fluc driven by 10x clustered upstream activating sequences coupled to a minimal CMV promoter, 10 × UAS-minCMVp) were used. Additionally, 1 ng of a plasmid constitutively expressing an EYFP that is fused to nuclear localisation sequence (EYFPnuc) driven by a CMV promoter was transfected per 96-well to assess transfection efficiencies (EYFPnuc). In detail, assay plasmids were diluted in 30 µl Opti-MEM (Thermo Fisher Scientific), vortexed, and mixed with 0.2 µl Lipofectamine 2000 per well. The DNA/Lipofectamine/Opti-MEM mix was incubated for 20 min. The medium was removed from the wells and the DNA/Lipofectamine/Opti-MEM mix was added onto the cells. After 2 h of incubation, the maintenance medium without antibiotics was added to the Opti-MEM mix. On day 2, the maintenance medium was replaced by starvation medium. […] 16 h later (day 4), the medium was removed, and cells were lysed using Passive Lysis Buffer (Promega) and luciferase activity was analysed using a dual luciferase assay (Promega) in a Mithras LB 940 Multimode Microplate Reader (Berthold Technologies). […] Error bars are calculated as standard error of the mean (SEM).\nas §2"}, "ERBB4 [4]": {"test_system": "ERBB4", "conditions": "Biochemical, AID 1204629; cited from earlier work"}, "EGFR [5]": {"test_system": "EGFR", "conditions": "Western blotting, cellular lysates, AID 770081; cited from earlier work"}, "ERBB3": {"biological_target": "ERBB3", "conditions": "Biochemical, AID 1204629; cited from earlier work"}, "ERBB2": {"biological_target": "ERBB2", "conditions": "Biochemical, AID 1204629; cited from earlier work"}, "EGFR [6]": {"test_system": "EGFR", "conditions": "Biochemical, AID 1204628; cited from earlier work"}},
  "note": "Like-named read-outs stand apart in the source and are kept apart here.",
  "data": [
    {"smiles": "CS(=O)(=O)CCNCc1ccc(-c2ccc3ncnc(Nc4ccc(OCc5cccc(F)c5)c(Cl)c4)c3c2)o1", "note": "[Lapatinib, lapatinib]", "values": [
      {"measurement": "Inhibition of IGF1R activity", "setting": "IGF1R", "value": "did not inhibit"},
      {"measurement": "Concentration at which toxic effects occur (constitutive Renilla luciferase readout)", "setting": "PC12 cells", "value": 30, "unit": "µM"},
      {"measurement": "Inhibition of MET activity", "setting": "MET", "value": "did not inhibit"}
    ]},
    {"smiles": "CC(=O)S[C@@H]1CC2=CC(=O)CC[C@]2(C)[C@H]2CC[C@@]3(C)[C@@H](CC[C@@]34CCC(=O)O4)[C@H]12", "note": "[Spironolactone, spironolactone]", "values": [
      {"measurement": "Selectivity among ERBB receptors", "setting": "ERBB4 [1]", "value": "selectivity for ERBB4 over EGFR"},
      {"measurement": "Antagonistic effect on EGFR activity", "setting": "EGFR [2]", "value": "inhibited"},
      {"measurement": "Antagonistic effect on ERBB2/ERBB3 activity", "setting": "ERBB2/ERBB3", "value": "inhibited"},
      {"measurement": "Antagonistic effect on ERBB4 activity", "setting": "ERBB4 [3]", "value": "inhibited"},
      {"measurement": "Selectivity among ERBB receptors", "setting": "ERBB4 [3]; split TEV recruitment assays, SH2(GRB2) adapter", "value": "some selectivity for ERBB4 over EGFR"}
    ]},
    {"smiles": "C=CC(=O)Nc1cccc(Oc2nc(Nc3ccc(N4CCN(C)CC4)cc3OC)ncc2Cl)c1", "note": "[WZ4002]", "values": [
      {"measurement": "pIC50", "setting": "ERBB4 [4]", "value": 9.37},
      {"measurement": "pIC50", "setting": "EGFR [5]", "value": 5.93},
      {"measurement": "IC50 (nM)/KD", "setting": "ERBB3", "value": 0.42, "unit": "nM"},
      {"measurement": "pIC50", "setting": "ERBB3", "value": 9.37},
      {"measurement": "IC50 (nM)/KD", "setting": "ERBB2", "value": 0.42, "unit": "nM"},
      {"measurement": "pIC50", "setting": "ERBB2", "value": 9.37},
      {"measurement": "pIC50", "setting": "EGFR [6]", "value": 7.79}
    ]},
    {"smiles": "C[C@]12CCC(=O)C=C1C=C[C@@H]1[C@@H]2CC[C@@]2(C)[C@H]1CC[C@@]21CCC(=O)O1", "note": "[canrenone]", "values": [
      {"measurement": "Antagonistic effect on EGFR activity", "setting": "EGFR [2]", "value": "did not exhibit any antagonistic effects"},
      {"measurement": "Antagonistic effect on ERBB2/ERBB3 activity", "setting": "ERBB2/ERBB3", "value": "did not exhibit any antagonistic effects"},
      {"measurement": "Antagonistic effect on ERBB4 activity", "setting": "ERBB4 [3]", "value": "did not exhibit any antagonistic effects"}
    ]},
    {"smiles": "COc1cc2c(Oc3ccc(NC(=O)C4(C(=O)Nc5ccc(F)cc5)CC4)cc3F)ccnc2cc1OCCCN1CCOCC1", "note": "[foretinib]", "values": [
      {"measurement": "Concentration at which toxic effects occur (constitutive Renilla luciferase readout)", "setting": "PC12 cells", "value": 30, "unit": "µM"}
    ]},
    {"smiles": "C[C@]1(O)C[C@@H](c2nc(-c3ccc4ccc(-c5ccccc5)nc4c3)c3c(N)nccn32)C1", "note": "[linsitinib]", "values": [
      {"measurement": "Inhibition of IGF1R activity", "setting": "IGF1R", "value": "efficiently inhibited"},
      {"measurement": "Concentration at which toxic effects occur (constitutive Renilla luciferase readout)", "setting": "PC12 cells", "value": 30, "unit": "µM"}
    ]}
  ]
}
